Assay results published in patent US20220306626A1, “CRYSTALLINE FORM OF A DIHYDROCHLORIDE SALT OF A JAK INHIBITOR COMPOUND” (Theravance Biopharma R&D IP, LLC, priority 2021, published 2022).
Where two headings read alike, the source gives them in different places.

Legend:
[1] = Dynamic moisture sorption (DMS) assessment; format: physicochemical
Protocol: Dynamic moisture sorption (DMS) measurement was performed using a VTI atmospheric microbalance, SGA-100 system (VTI Corp., Hialeah, Fla. 33016). A weighed sample was used and the humidity was at the lowest possible value (close to 0% RH) at the start of the analysis. The DMS analysis consisted of an initial drying step (˜0% RH) for 16 hours, followed by two cycles of sorption and desorption with a scan rate of 5% RH/step over the humidity range of 5% RH to 90% RH. The DMS run was performed isothermally at 25° C.

[2] = Thermogravimetric analysis (TGA); format: physicochemical; settings: heating rate of 10° C., ambient to 360° C., nitrogen
Protocol: Thermogravimetric analysis (TGA) measurements were performed using a TA Instruments Model Q-50 module equipped with high resolution capability. Data were collected using TA Instruments Thermal Analyst controller and analyzed using TA Instruments Universal Analysis software. A weighed sample was placed onto a platinum pan and scanned with a heating rate of 10° C. from ambient temperature to 360° C. The balance and furnace chambers were purged with nitrogen flow during use. The crystalline form decomposes at an onset temperature of about 285° C.

[3] = Solubility of the crystalline form in water and Simulated Lung Fluid; format: physicochemical
Protocol: The solubility of the crystalline form was assessed in water and Simulated Lung Fluid (SLF). The crystalline form was dispersed in liquid media in multiple vials to form slurries, with each vial containing about 7.5 mg of the crystalline form and 0.5 mL of the liquid media. The slurries were agitated in a thermo-shaker at 25° C. and samples were collected from different vials at approximately 5, 15, 30, 60 minutes, and 24 hours. At each of the timepoints, the slurries were centrifuged for 10 minutes. The supernatant was collected and centrifuged for another 10 minutes. Solubility at each timepoint is determined by analyzing the compound concentration in the supernatant using HPLC. SLF composition: 0.4% NaCl, 0.02% DPPC in 50 mM phosphate buffer pH 6.9

[4] = Stability study, storage at 40° C. and 75% relative humidity, analysed by HPLC; format: physicochemical
Protocol: Samples of the crystalline form were stored in glass vials with screw caps at 40° C. and 75% relative humidity (RH). At specific intervals, the contents of a representative sample were removed and analyzed by HPLC for assay and chemical purity as shown in Table 3.

[5] = system: pro-inflammatory and pro-fibrotic cytokines; settings: cited from earlier work
JAK1 = JAK1 (Homo sapiens, UniProt P23458); settings: cited from earlier work
[6] = in vivo; cited from earlier work
JAK2 = JAK2 (Homo sapiens, UniProt O60674); settings: cited from earlier work
JAK3 = target: T1, JAK3 (Homo sapiens, UniProt P52333); settings: cited from earlier work
T1 sequence (P52333 1-1124): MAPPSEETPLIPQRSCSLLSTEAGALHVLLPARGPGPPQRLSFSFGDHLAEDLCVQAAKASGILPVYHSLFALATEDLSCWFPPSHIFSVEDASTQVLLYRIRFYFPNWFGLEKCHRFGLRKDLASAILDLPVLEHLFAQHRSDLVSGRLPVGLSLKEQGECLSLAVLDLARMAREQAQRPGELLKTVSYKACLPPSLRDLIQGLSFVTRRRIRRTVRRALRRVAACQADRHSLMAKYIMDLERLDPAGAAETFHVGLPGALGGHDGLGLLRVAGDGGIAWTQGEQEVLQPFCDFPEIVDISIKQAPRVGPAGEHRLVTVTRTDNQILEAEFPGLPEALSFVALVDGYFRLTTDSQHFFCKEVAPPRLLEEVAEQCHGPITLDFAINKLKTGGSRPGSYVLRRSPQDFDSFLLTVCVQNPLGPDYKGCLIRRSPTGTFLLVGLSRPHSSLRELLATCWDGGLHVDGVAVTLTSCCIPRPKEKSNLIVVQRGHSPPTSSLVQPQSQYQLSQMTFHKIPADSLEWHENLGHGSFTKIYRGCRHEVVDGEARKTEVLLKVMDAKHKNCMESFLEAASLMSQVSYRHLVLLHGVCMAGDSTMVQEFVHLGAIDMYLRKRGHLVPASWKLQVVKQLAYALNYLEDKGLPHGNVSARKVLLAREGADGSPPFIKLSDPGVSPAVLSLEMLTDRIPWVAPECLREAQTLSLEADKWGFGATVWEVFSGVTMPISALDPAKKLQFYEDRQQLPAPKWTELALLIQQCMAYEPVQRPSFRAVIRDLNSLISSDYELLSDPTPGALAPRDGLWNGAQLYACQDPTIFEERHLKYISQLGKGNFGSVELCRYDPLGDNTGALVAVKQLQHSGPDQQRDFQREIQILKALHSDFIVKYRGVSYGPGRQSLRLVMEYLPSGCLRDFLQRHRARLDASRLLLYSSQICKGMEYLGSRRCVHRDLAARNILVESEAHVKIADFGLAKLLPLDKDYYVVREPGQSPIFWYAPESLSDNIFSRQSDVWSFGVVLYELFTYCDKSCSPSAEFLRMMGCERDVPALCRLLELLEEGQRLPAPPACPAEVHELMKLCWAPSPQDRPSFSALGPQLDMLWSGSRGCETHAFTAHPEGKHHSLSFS

TYK2 = TYK2 (Homo sapiens, UniProt P29597); settings: cited from earlier work
[7] = T = 3 Months, 40° C. and 75% RH
[8] = T = 6 Months, 40° C. and 75% RH

Chain of TYK2 (P29597 whole entry): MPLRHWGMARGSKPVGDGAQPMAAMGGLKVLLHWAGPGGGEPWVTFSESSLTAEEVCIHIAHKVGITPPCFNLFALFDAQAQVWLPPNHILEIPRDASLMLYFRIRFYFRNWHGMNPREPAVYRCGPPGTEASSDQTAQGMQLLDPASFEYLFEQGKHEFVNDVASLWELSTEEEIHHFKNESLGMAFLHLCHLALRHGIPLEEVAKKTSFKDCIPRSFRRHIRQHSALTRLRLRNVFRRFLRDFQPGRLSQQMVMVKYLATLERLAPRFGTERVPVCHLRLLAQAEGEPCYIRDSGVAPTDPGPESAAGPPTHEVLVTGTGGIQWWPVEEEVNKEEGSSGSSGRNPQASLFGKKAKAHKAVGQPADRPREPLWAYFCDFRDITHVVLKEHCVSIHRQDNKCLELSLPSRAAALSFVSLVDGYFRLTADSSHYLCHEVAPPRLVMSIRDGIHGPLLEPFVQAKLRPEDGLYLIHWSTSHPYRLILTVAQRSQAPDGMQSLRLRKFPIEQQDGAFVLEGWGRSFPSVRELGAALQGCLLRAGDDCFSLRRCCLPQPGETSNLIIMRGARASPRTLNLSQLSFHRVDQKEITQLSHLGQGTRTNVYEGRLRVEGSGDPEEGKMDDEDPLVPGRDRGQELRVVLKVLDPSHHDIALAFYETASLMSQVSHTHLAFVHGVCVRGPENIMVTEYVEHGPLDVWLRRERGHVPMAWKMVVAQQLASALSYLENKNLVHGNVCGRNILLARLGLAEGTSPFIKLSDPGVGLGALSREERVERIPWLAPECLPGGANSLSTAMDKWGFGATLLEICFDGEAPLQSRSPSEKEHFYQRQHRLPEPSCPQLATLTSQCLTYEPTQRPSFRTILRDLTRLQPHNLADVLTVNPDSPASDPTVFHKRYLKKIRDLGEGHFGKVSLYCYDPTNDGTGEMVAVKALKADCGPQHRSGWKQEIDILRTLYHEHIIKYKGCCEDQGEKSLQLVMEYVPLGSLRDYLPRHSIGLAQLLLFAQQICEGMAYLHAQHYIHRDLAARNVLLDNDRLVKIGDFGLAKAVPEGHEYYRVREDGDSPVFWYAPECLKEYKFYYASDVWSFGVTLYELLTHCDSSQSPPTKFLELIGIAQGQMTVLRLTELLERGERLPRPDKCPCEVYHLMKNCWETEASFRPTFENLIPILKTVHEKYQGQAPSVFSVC
Chain of JAK2 (O60674 whole entry): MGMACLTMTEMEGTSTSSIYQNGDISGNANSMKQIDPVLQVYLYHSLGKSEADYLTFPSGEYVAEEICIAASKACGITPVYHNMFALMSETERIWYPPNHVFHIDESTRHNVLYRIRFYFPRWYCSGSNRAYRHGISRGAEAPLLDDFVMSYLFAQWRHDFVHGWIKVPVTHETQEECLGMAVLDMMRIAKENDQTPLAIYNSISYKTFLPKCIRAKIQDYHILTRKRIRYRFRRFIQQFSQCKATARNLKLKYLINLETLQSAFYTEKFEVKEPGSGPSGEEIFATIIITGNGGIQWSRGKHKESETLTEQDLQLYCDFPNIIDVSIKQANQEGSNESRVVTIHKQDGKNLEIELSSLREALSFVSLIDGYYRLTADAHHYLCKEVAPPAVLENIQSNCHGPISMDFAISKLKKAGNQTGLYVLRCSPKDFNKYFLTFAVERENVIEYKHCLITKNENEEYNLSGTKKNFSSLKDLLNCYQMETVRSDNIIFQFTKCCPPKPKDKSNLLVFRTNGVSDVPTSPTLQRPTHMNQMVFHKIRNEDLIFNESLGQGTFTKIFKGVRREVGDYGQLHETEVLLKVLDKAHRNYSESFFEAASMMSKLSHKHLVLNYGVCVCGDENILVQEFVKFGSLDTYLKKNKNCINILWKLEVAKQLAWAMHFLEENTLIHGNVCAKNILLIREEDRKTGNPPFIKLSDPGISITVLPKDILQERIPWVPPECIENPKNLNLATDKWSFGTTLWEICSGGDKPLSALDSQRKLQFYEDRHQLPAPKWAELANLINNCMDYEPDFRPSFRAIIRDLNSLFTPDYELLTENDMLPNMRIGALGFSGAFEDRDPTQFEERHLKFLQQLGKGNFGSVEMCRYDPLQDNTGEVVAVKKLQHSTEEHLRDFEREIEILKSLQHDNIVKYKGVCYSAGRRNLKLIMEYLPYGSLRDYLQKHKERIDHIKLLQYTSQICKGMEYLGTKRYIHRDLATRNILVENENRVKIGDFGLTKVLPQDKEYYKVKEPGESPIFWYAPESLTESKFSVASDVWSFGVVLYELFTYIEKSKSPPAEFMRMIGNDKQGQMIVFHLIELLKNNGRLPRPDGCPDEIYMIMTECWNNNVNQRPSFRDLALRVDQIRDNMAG
Chain of JAK1 (P23458 whole entry): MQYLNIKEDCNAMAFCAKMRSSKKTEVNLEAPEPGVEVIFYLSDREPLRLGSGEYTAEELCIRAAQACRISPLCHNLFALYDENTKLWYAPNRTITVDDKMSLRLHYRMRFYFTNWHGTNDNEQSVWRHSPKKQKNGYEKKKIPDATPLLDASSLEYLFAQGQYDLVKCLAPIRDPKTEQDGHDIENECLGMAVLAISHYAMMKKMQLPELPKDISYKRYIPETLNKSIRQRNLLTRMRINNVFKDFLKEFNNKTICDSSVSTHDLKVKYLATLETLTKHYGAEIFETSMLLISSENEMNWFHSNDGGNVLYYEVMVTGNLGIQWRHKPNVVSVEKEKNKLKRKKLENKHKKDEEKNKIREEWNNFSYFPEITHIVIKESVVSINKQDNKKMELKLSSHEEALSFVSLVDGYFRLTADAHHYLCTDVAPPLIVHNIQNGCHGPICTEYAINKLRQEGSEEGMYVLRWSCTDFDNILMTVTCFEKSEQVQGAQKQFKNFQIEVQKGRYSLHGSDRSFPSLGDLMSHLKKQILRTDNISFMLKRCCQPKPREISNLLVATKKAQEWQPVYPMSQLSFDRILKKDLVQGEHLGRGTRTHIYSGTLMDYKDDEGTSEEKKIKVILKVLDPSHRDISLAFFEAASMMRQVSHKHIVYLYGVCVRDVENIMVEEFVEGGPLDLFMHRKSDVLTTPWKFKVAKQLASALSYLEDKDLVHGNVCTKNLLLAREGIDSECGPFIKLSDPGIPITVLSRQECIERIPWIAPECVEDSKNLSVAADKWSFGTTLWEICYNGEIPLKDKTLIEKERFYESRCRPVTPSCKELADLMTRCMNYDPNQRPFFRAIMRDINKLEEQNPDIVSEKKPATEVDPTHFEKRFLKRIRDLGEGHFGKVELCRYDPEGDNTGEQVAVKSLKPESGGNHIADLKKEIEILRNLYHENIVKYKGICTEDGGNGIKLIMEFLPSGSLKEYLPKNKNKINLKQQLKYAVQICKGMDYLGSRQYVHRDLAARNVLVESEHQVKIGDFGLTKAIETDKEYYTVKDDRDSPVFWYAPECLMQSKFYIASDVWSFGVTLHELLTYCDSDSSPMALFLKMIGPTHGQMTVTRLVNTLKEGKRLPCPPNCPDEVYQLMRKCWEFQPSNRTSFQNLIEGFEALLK

CCc1cc(O)c(F)cc1-c1ccc2c(-c3nc4c([nH]3)CCN(C3CCN(C)CC3)C4)n[nH]c2c1 [crystalline form, 5-ethyl-2-fluoro-4-(3-(5-(1-methylpiperidin-4-yl)-4,5,6,7-tetrahydro-1H-imidazo[4,5-c]pyridin-2-yl)-1H-indazol-6-yl)phenol, 2HCl Crystalline Form]
change in form after two cycles of moisture sorption and desorption ([1]; 5% RH to 90% RH, 25° C.): no change in form | total moisture uptake ([1]; relative humidity between about 5% and about 90%, room temperature (25° C.)): about 0.8% | decomposition onset temperature (TGA) [2]: about 285 °C | solubility at 30 min ([3]; Simulated Lung Fluid (SLF), fassgf or other biorelevant, thermodynamic from solid, Simulated Lung Fluid pH 6.9, 25° C., 30 minutes): 210 µg/mL | solubility at 24 h ([3]; Simulated Lung Fluid (SLF), pH 6.9, fassgf or other biorelevant, thermodynamic from solid, Simulated Lung Fluid, 25° C., read-out: solubility in SLF): 70 µg/mL | solubility in simulated lung fluid (in words) ([3]; simulated lung fluid): good solubility | solubility at 60 min ([3]; thermodynamic from solid, water, 25° C., 60 minutes): 8900 µg/mL | solubility at 24 h ([3]; thermodynamic from solid, water, 25° C., read-out: solubility in water): 3200 µg/mL | solubility in water (in words) ([3]; water): good solubility | Assay % w/w ([4]; T = 0): 85.0 % w/w | HPLC purity % a/a ([4]; T = 0): 98.7 % a/a | Assay % w/w ([4]; T = 1 Week, 40° C. and 75% RH): 86.8 % w/w | HPLC purity % a/a ([4]; T = 1 Week, 40° C. and 75% RH): 98.7 % a/a | Assay % w/w ([4]; T = 2 Weeks, 40° C. and 75% RH): 85.1 % w/w | HPLC purity % a/a ([4]; T = 2 Weeks, 40° C. and 75% RH): 98.7 % a/a | Assay % w/w [4, 7]: 84.5 % w/w | HPLC purity % a/a [4, 7]: 98.7 % a/a | Assay % w/w ([4]; T = 4 Weeks, 40° C. and 75% RH): 86.9 % w/w | HPLC purity % a/a ([4]; T = 4 Weeks, 40° C. and 75% RH): 98.7 % a/a | Assay % w/w [4, 8]: 85.1 % w/w | HPLC purity % a/a [4, 8]: 98.5 % a/a | change in purity or assay ([4]; after 6 months at 40° C. and 75% RH): no significant change

CCc1cc(O)c(F)cc1-c1ccc2c(-c3nc4c([nH]3)CCN(C3CCN(C)CC3)C4)n[nH]c2c1 [compound 1, 5-ethyl-2-fluoro-4-(3-(5-(1-methylpiperidin-4-yl)-4,5,6,7-tetrahydro-1H-imidazo[4,5-c]pyridin-2-yl)-1H-indazol-6-yl)phenol]
inhibition of pro-inflammatory and pro-fibrotic cytokines (in words) [5]: potent inhibition | inhibition of JAK1 (in words) (JAK1): potent inhibitor | lung retention (in words) [6]: significant lung retention | inhibition of JAK2 (in words) (JAK2): potent inhibitor | inhibition of JAK3 (in words) (JAK3): potent inhibitor | inhibition of TYK2 (in words) (TYK2): potent inhibitor
